“And” between values parts separate entries of the source, which are not always exact repeats. Identical values can stand only once. “Also recorded” adds a separate entry of the source. Like-named read-outs stand apart in the source and are kept apart here.
What was measured:
[1] = target: human CB1 receptors (Homo sapiens (Human), UniProt P21554); experiment: Cannabinoid receptor binding (displacement) assay, CB1; settings: 10 μM compound
Description: (§1) The affinities of the compounds for CB1 and CB2 receptors were examined using displacement assays, as previously described. Briefly, cell membranes from CHO cells expressing human CB1 or human CB2 receptors were isolated using differential centrifugation. Test compounds reconstituted in DMSO and were incubated with the isolated membrane in binding buffer (50 mM Tris-HCl, 1 mM EDTA, 3 mM MgCl2, 5 mg/mL BSA, pH 7.4) along with 2.5 nM [^3H]CP-55,940. Total binding was assessed in the presence of equal concentration of DMSO, while non-specific binding was determined in the presence of 10 μM CP-55,940, and background binding was determined in wells lacking membrane. Following incubation at 30° C. for 60 min, the binding reactions were terminated by vacuum filtration through Whatman GF/C filters. The filters were then washed twice with ice-cold buffer (50 mM Tris-HCl, 1 mg/mL BSA). Liquid scintillation cocktail was added to each well and the total tritiated counts per minute were analyzed using a TopCount scintillation counter. Background counts were subtracted from all wells and the percent displacement from total binding was calculated.
(§2) The compounds were initially screened at 10 μM concentrations. If they produced at least ±30% displacement of the radioligand, then full competition curves were constructed. Ki values were calculated using GraphPad Prism (San Diego, CA, USA) and Kd values determined using a 1 site fit. All assays were run in technical and biological replicates so that the n=5-6. PK Evaluation in CD-1 Mice
(§3) The CB1/CB2 receptor binding activities of analogs 4a-4q were assessed via radioactivity-based competitive binding assays using [^3H]CP55,940, an extensively studied radioligand that is frequently used for cannabinoid assays. […] In preliminary screening, all 17 synthetic PBD compounds (4a-4q) were subjected to in vitro CB1 and CB2 binding assays at a single concentration of 10 μM. […] Therefore, the most promising ligands (4k and 4q) were selected for assessment in full competition curves against CB1 and CB2.

[2] = target: human CB2 receptors (Homo sapiens (Human), UniProt P34972); experiment: Cannabinoid receptor binding (displacement) assay, CB2; settings: for Displacement of [3H]CP-55,940 from CB2: 10 μM compound; for Ki: CB2, full competition curves
Description: as §1, §2, §3

[3] = PK evaluation in CD-1 mice (plasma and tissue concentrations); format: in vivo
Description: The primary stock solutions of 4k and phenacetin (internal standard, IS) were prepared in methanol at a concentration of 1.0 mg/mL. Working solutions of calibration standards and quality control (QC) samples were prepared by dilution with methanol and stored at −20° C. A working stock of the IS solution (20 ng/mL) was prepared in methanol and stored at −20° C.
Chromatography was performed on an Acquity™ UPLC system (Waters Corp, Milford, MA, USA) with an autosampler temperature at 10° C. Waters Acquity UPLC® HSS C18 column (3.0×50 mm, 1.8 μm particle size) was used for chromatographic separation with linear gradient elution consisting of (A) 90% acetonitrile and (B) 10% 0.2% formic acid in Milli-Q water as mobile phases. The flow rate was set at 0.30 mL/min, and the injection volume was 2 μL.
An Acquity Tandem Quadrupole Mass Detector (Xevo TQ-S; Waters Corp, Milford, MA, USA) in positive electrospray ionization mode was used for mass spectrometric detection. For collision-induced dissociation, argon was used as collision gas. The cone voltage and collision energy were set at 60 V and 34 V for 4k and 46 V and 26 V for the IS, respectively. Quantification was performed using the monitoring of multiple reaction monitoring (MRM) of following transitions: m/z 409.0/220.9 for 4k and m/z 180.0/92.7 for IS. Retention times of 4k and IS were 2.85 and 1.81 min, respectively.
A simple protein precipitation method was followed for extraction of 4k from mice plasma. To an aliquot of 50 μL of plasma or tissue (brain, liver, or kidney) samples, IS solution (5 μL of 20 ng/mL) was added and mixed for 15 s on a cyclomixer (Thermo Scientific, Indianapolis, IN, USA). After precipitation with 200 μL of acetonitrile, the mixture was vortexed for 2 min, followed by centrifugation for 10 min at 14,000 rpm on an accuSpin Micro 17R (Fisher Scientific, Suwanee, GA, USA) at 5° C. An aliquot of ˜150 μL of clear supernatant was transferred into vials and 2 μL was injected onto LC-MS/MS system for analysis.
Male CD-1 mice (N=48) were obtained from Envigo (St. Louis, MO, USA) and maintained on a 12:12 h reversed dark/light cycle (lights off at 07:00 h) with ad libitum access to food and water. Following a ˜4 h fast, animals were randomly assigned to one of two groups. Group I and II animals (n=24/group, weight range 25-30 g) received compound 4k (5 mg/kg) orally (in the form of a solution, prepared using 10% absolute alcohol, 10% cremophor, and 80% Milli-Q water) or intravenously (i.v., using solution formulation comprising 10% absolute alcohol, 10% cremophor, and 80% normal saline), respectively. At 0.5, 1, 2, 4, 8, and 24 h post administration, animals were euthanized, blood was collected in K2. EDTA-containing polypropylene tubes and, tissues were collected (brain, liver, and kidney). Plasma was harvested by centrifuging the blood using Eppendorf 5430R Centrifuge (Germany) at 5000 rpm for 5 min and stored frozen at −80° C. until analysis.
Brain, liver, and kidney tissues were homogenized in separate 15 mL round-bottom screw-capped vials in phosphate buffered saline (5 volumes of each tissue mass) with a homogenizer (Polytron®) and stored at −80° C. until analysis. Plasma or tissue homogenates (50 μL) were spiked with IS and processed as mentioned in sample preparation section.
Plasma and tissue concentration and time data of compound 4k were analyzed by a non-compartmental method using WinNonlin Version 5.3 (Pharsight Corporation, Mountain View, CA, USA).

[4] = Stability studies under physiological pH; format: physicochemical; settings: 4k compared to 4q; data not reported
[5] = test system: mice; experiment: Acetic acid-induced writhing test; format: in vivo
Source text: Acetic acid-induced writhing is widely used for assessing analgesic effects against inflammatory pain of peripheral origin.

[6] = test system: mice; experiment: Conditioned place preference test; format: in vivo; settings: FIG. 4
Source text: Conditioned place preference testing is used to assess a compound's rewarding effects in order to gauge potential abuse liability. Mice are “conditioned” to associate distinctly lighted/colored/textured chambers with a rewarding drug (e.g., opioid) or no drug. If the mice sense a rewarding effect of the drug, they will prefer to occupy the chamber associated with that drug. FIG. 4 presents the results of a conditioned place preference test for 3 groups of mice (i.e., vehicle, oxycodone treated, and compound 4k treated).

[7] = male, CD-1, mouse, intravenous 5 mg/kg, brain
[8] = male, CD-1, mouse, intravenous 5 mg/kg, kidney
[9] = male, CD-1, mouse, intravenous 5 mg/kg, liver
[10] = male, CD-1, mouse, intravenous 5 mg/kg, plasma
[11] = male, CD-1, mouse, oral 5 mg/kg, brain
[12] = male, CD-1, mouse, oral 5 mg/kg, kidney
[13] = male, CD-1, mouse, oral 5 mg/kg, liver
[14] = male, CD-1, mouse, oral 5 mg/kg, plasma

human CB1 receptors, sequence (P21554 whole entry): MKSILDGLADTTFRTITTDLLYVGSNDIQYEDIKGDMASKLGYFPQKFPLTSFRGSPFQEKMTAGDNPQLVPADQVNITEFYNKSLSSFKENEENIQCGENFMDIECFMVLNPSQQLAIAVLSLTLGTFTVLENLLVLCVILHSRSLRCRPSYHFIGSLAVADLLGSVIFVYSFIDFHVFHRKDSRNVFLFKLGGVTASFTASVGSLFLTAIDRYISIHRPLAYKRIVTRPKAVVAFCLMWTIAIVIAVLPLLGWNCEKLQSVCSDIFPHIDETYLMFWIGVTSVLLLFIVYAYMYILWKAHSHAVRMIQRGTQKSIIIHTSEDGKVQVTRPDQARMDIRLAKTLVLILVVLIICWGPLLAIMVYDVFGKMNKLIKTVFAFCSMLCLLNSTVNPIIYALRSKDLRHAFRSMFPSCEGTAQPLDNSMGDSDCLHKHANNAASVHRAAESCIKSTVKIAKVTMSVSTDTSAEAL
human CB2 receptors, sequence (P34972 whole entry): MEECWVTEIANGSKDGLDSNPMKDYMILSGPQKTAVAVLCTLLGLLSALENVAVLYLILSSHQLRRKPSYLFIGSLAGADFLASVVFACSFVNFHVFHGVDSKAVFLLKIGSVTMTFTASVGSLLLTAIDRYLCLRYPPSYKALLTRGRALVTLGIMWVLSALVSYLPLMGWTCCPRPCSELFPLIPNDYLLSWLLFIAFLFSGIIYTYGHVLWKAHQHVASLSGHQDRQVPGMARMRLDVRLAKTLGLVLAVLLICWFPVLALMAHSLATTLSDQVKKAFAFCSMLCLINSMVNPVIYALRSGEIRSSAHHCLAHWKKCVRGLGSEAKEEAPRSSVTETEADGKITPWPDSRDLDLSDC

## O=C1c2ccccc2N/C(=N/N=C/c2sc3ccccc3c2Cl)[C@@H]2CCCN12 [Compound 4m]
[1]
  Displacement of [3H]CP-55,940 from CB1: 5.22%
[2]
  Displacement of [3H]CP-55,940 from CB2: 50.05%

## (S,E)-11-[(5-Methoxy-1H-indol-3-yl)methylene)hydrazono]-pyrrolo[2,1-c][1,4]Benzodiazepine [Compound 4p]
[1]
  Displacement of [3H]CP-55,940 from CB1: −27.20%
[2]
  Displacement of [3H]CP-55,940 from CB2: −29.47%

## Cn1cc(/C=N/N=C2/Nc3ccccc3C(=O)N3CCC[C@@H]23)c2ccccc21 [Compound 4o]
[1]
  Displacement of [3H]CP-55,940 from CB1: 5.09%
[2]
  Displacement of [3H]CP-55,940 from CB2: 1.01%

## Nc1ncc(/C=N/N=C2/Nc3ccccc3C(=O)N3CCC[C@@H]23)s1 [Compound 4f]
[1]
  Displacement of [3H]CP-55,940 from CB1: 1.75%
[2]
  Displacement of [3H]CP-55,940 from CB2: 3.72%

## O=C1c2ccccc2N/C(=N/N=C/C23CC4CC(CC(C4)C2)C3)[C@@H]2CCCN12 [Compound 4q]
[2]
  Ki: 137 nM

## O=C1c2ccc(Cl)cc2N/C(=N/N=C/c2cc3ccccc3s2)[C@@H]2CCCN12 [Compound 4k]
[2]
  Ki: 146 nM
[3]; intravenous 5 mg/kg, brain
  AUC0-∞: 5685 ng·h/g
[3]; intravenous 5 mg/kg, kidney
  AUC0-∞: 13272 ng·h/g
[3]; intravenous 5 mg/kg, liver
  AUC0-∞: 19991 ng·h/g
[3]; intravenous 5 mg/kg, plasma
  clearance as share of hepatic blood flow in mice: 26%
[3]; [7]
  clearance: 15.7 ± 2.31 mL/min/kg
  half-life: 6.54 ± 1.38 h
[3]; [8]
  clearance: 6.38 ± 0.49 mL/min/kg
  half-life: 10.2 ± 0.49 h
[3]; [9]
  clearance: 4.28 ± 0.38 mL/min/kg
  half-life: 9.26 ± 0.67 h
[3]; [10]
  Vd: 14.3 ± 3.11 L/kg
  clearance: 23.5 ± 5.35 mL/min/kg
  half-life: 6.91 ± 0.15 h
[3]; male, CD-1, mouse, intravenous 5 mg/kg, plasma, read-out: Cmax Or C0
  Cmax: 4340 ng/mL
[3]; [11]
  Tmax: 1.25 ± 0.44 h
  half-life: 22.9 ± 3.73 h
[3]; male, CD-1, mouse, oral 5 mg/kg, brain, read-out: Cmax
  Cmax: 602 ± 44.8 ng/g
[3]; male, CD-1, mouse, oral 5 mg/kg, brain, read-out: F (apparent oral bioavailability)
  bioavailability: 43%
[3]; [12]
  Tmax: 0.75 ± 0.15 h
  half-life: 16.7 ± 1.61 h
[3]; male, CD-1, mouse, oral 5 mg/kg, kidney, read-out: Cmax
  Cmax: 795 ± 22.6 ng/g
[3]; male, CD-1, mouse, oral 5 mg/kg, kidney, read-out: F (apparent oral bioavailability)
  bioavailability: 37 ± 3.78%
[3]; [13]
  Tmax: 0.75 ± 0.15 h
  half-life: 13 ± 0.97 h
[3]; male, CD-1, mouse, oral 5 mg/kg, liver, read-out: Cmax
  Cmax: 1890 ± 282 ng/g
[3]; male, CD-1, mouse, oral 5 mg/kg, liver, read-out: F (apparent oral bioavailability)
  bioavailability: 32 ± 2.86%
[3]; [14]
  AUC(0-inf): 739 ± 6.75 ng·h/mL
  Tmax: 0.88 ± 0.13 h
  half-life: 16.4 ± 1.66 h
[3]; male, CD-1, mouse, oral 5 mg/kg, plasma, read-out: Cmax
  Cmax: 198 ± 11.5 ng/mL
[3]; male, CD-1, mouse, oral 5 mg/kg, plasma, read-out: F (bioavailability)
  bioavailability: 18 ± 2.43%
[3]; oral 5 mg/kg, kidney
  AUC0-∞: 5223 ± 44.75 ng·h/g and 5223 ng·h/g
[3]; oral 5 mg/kg, liver
  AUC0-∞: 6423 ± 571 ng·h/g and 6423 ng·h/g
[4]
  tolerance under physiological pH: better tolerance
[5]; FIG. 3A, 4k 5 mg/kg versus vehicle
  number writhes per 5 min: lower
[5]; FIG. 3B, 30 min
  total frequency of writhes over the entire experiment: lowest
[5]; oxycodone 3 mg/kg, compound 4k 5 mg/kg, versus vehicle
  writhing over 30 minutes: attenuate writhing; also recorded: significantly less writhing
[6]
  place preference (rewarding effect, abuse liability): no significant rewarding effects; also recorded: no such preference

## (S,E)-11-[(Benzo[d]thiazol-2-ylmethylene)hydrazono]-pyrrolo[2,1-c][1,4] Benzodiazepine [Compound 4n]
[1]
  Displacement of [3H]CP-55,940 from CB1: 44.14%
[2]
  Displacement of [3H]CP-55,940 from CB2: 43.34%

## O=C1c2ccccc2N/C(=N/N=C/c2sc(Cl)nc2Cl)[C@@H]2CCCN12 [Compound 4g]
[1]
  Displacement of [3H]CP-55,940 from CB1: 24.19%
[2]
  Displacement of [3H]CP-55,940 from CB2: 29.27%

## (S,E)-11-[(Benzo[b]thiophen-2-ylmethylene)hydrazono]-7-bromo-pyrrolo[2,1-c][1,4]Benzodiazepine [Compound 4i]
[1]
  Displacement of [3H]CP-55,940 from CB1: 49.82%
[2]
  Displacement of [3H]CP-55,940 from CB2: 36.39%

Source: patent US20230303581A1, “ORALLY BIOAVAILABLE, BRAIN-PENETRANT COMPOUND WITH SELECTIVITY FOR THE CANNABINOID TYPE 2 RECEPTOR WITH POTENTIAL USE TOWARDS VISCERAL PAIN MANAGEMENT AND NEURODEGENERATIVE DISORDERS” (University of Mississippi, priority 2022, published 2023)
